Results from article PMC10720383, “Acetylcholinesterase Inhibition in Rats and Humans Following Acute Fenitrothion Exposure Predicted by Physiologically Based Kinetic Modeling-Facilitated Quantitative In Vitro to In Vivo Extrapolation” (Environmental Science & Technology, 2023).
Where two headings read alike, the source gives them in different places.

Tests used:
erythrocyte AChE [1] = assay: PBK modeling-facilitated QIVIVE and BMD analysis, rat; conditions: erythrocyte AChE inhibition, acute oral FNT exposure
Description: For toxicity prediction, the maximum blood FNO concentration was used as a dose metric relating AChE inhibition to acute FNT exposure (see section 3.3). Since the in vitro AChE inhibition under increasing FNO concentrations was tested in rat and human blood, these nominal concentrations could be used directly as the biological effective concentrations (in vivo maximum blood FNO concentrations), and no extra correction for differences in in vitro and in vivo protein binding was deemed necessary. Then the corresponding FNT dose levels resulting in these in vivo concentrations were derived via PBK modeling-facilitated reverse dosimetry. In doing so, the in vitro concentration–response relationship was converted to the predicted in vivo dose-dependent erythrocyte AChE inhibition, which was then compared to available in vivo toxicity data in rats and humans.[8],[39]
BMD modeling was used to derive POD values from the predicted in vivo dose-dependent data sets for rats and humans. A BMD value resulting in a 10% benchmark response (BMR) change with lower 95% confidence limit was defined as BMDL10, and the obtained values for rats and humans were evaluated against the reported NOAELs.[1],[11]−[13] Details and results of BMD analysis are provided in the Supporting Information. […]
BMD modeling was used to derive POD values from the predicted in vivo dose-response curves for rats and humans. […]

erythrocyte AChE [2] = conditions: cited from earlier work
PON1 [3] = biological target: T1, PON1 (Homo sapiens, UniProt P27169); assay: in vitro; type: in vitro ADME; conditions: both sexes, pH 7.4, gender-mixed
T1 construct: gender-mixed liver microsomes or plasma from rats and humans; tissue BioIVT (West Sussex, UK); host or cells: human plasma pooled from 25 donors, mixed gender
T1 sequence (P27169 whole entry): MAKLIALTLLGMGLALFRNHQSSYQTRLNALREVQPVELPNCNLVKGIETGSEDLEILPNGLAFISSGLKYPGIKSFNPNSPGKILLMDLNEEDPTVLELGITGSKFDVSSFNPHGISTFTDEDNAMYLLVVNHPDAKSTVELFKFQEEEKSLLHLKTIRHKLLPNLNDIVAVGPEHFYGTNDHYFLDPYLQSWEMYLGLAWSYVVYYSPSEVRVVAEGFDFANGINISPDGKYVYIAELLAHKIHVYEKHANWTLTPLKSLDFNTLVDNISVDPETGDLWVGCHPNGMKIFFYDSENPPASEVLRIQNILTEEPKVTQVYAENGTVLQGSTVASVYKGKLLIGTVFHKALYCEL
Description: (§1) In vitro incubations were performed to obtain kinetic parameters for the CYP450s-catalyzed conversion of FNT to FNO and MNP using gender-mixed rat and human liver microsomes. For the PON1-dominated detoxification of FNO to MNP, in vitro incubations were conducted with gender-mixed liver microsomes or plasma from rats and humans. Sample extraction with diisopropyl ether was performed before UPLC-PDA analysis. More details on in vitro incubations, sample extraction, UPLC-PDA analysis, and calculation of kinetic parameters are provided in the Supporting Information. […]
(§2) All incubations were performed in triplicate.
(§3) In vitro incubations for metabolic conversions of FNO
(§4) Incubations with liver microsomes and plasma were performed to obtain kinetic parameters for PON1-mediated detoxification of FNO to MNP based on a modified method (Zhao et al. 2021). Incubation conditions that were suitable for linearity with respect to time and microsomal protein or plasma protein concentration were defined (data not shown). The final incubation mixtures with a total volume of 200 µL contained 50 mM Tris-HCl (pH 7.4), 2 mM CaCl2 as PON1 activity simulator, and FNO at final concentrations ranging from 25 to 5000 µM (added from 100 times concentrated stock solutions in acetonitrile). Controls differed from test incubations by the absence of liver microsomes or plasma, which was replaced with Tris-HCl. After 1-min pre-incubation in a 37°C water bath, 2 µL rat or 10 µL human liver microsomes (final concentration 0.2 and 1 mg microsomal protein/mL for rat and human samples, respectively) was added to initiate the reaction. For the plasma incubations, 4 µL of rat plasma or 10 µL human plasma (final concentration 1.2 and 3.3 mg plasma protein/mL for rat and human samples, respectively) was used. Reactions were terminated after incubating 10 min for rat samples or 20 min for human samples by adding 20 µL ice-cold HClO4 (10%, v/v), and samples were kept on ice until further extraction. All incubations were performed in triplicate.
(§5) DIPE extraction of FNT and its metabolites (Zhao et al. 2019; Wang et al. 2022) was performed before UPLC analysis. […]
(§6) Finally, the obtained residue was redissolved in 100 μL methanol, and subsequently analyzed with […]
(§7) The quantification of FNT, FNO and MNP was conducted using a Shimadzu Nexera X2 liquid chromatography system (LC-30AD, Kyoto, Japan), connected with a photodiode array detector (SPD-M30A, Shimadzu, Kyoto, Japan). […]
(§8) temperature at 10°C during analysis. […] Quantification of FNT and FNO was performed by integrating peak areas at 269 nm and for MNP at 315 nm using calibration curves (r2 > 0.99) prepared with commercial standards. The limit of quantification was 0.1 µM for FNT, FNO and MNP when using an injection volume of 20 µL. […]

PON1 [4] = biological target: T2, PON1 (Rattus norvegicus, UniProt P55159); assay: in vitro; type: in vitro ADME; conditions: both sexes, Sprague-Dawley, pH 7.4, gender-mixed
T2 construct: gender-mixed liver microsomes or plasma from rats and humans; tissue Corning (male) and Sigma-Aldrich (female), pooled; host or cells: Sprague-Dawley rat liver microsomes, gender-mixed
T2 sequence (P55159 whole entry): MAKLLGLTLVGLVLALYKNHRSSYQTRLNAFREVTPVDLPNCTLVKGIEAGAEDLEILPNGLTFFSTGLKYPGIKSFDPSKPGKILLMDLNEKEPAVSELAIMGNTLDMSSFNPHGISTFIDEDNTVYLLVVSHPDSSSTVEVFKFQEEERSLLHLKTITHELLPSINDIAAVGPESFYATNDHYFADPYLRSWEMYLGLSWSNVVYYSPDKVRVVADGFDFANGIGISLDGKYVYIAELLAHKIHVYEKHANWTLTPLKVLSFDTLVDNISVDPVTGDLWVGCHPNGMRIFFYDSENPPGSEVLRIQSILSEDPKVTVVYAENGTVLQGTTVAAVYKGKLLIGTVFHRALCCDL
Description: as §1, §2, §3, §4, §5, §6, §7, §8

Question: Which “predicted BMDL10 (POD)” value (erythrocyte AChE [1]; 10% BMR, lower 95% confidence limit) does the source give for COP(=S)(OC)Oc1ccc([N+](=O)[O-])c(C)c1 [FNT, O,O-dimethyl O-4-nitro-m-tolyl phosphorothioate] here?
Answer: 1.30 mg/kg BW

Question: What about the BMDU10 (erythrocyte AChE [1]; upper confidence limit) of the same molecule?
Answer: 1.71 mg/kg BW

Question: And the “acute reference dose (ARfD)” value (erythrocyte AChE [2]; JMPR)?
Answer: 0.04 mg/kg BW/day

Question: What about the “acute reference dose (ARfD)” value (erythrocyte AChE [2]; US EPA) of the same molecule?
Answer: 0.0025 mg/kg BW/day

Question: For COP(=O)(OC)Oc1ccc([N+](=O)[O-])c(C)c1 [FNO, fenitrooxon], which Km (PON1 [3]; human liver microsomes, read-out: Km, FNO to MNP (PON1-catalyzed), liver) is on record?
Answer: 12.6 mM

Question: And the Km (PON1 [3]; human plasma, read-out: Km, FNO to MNP (PON1-catalyzed), plasma)?
Answer: 5.49 mM

Question: And the Km (PON1 [4]; rat liver microsomes, read-out: Km, FNO to MNP (PON1-catalyzed), liver)?
Answer: 4.53 mM

Question: What about the Km (PON1 [4]; rat plasma, read-out: Km, FNO to MNP (PON1-catalyzed), plasma) of the same molecule?
Answer: 4.08 mM
